Measured values reported in patent US9738634B2, “Heterocyclic amide compound and herbicide” (SYNGENTA PARTICIPATIONS AG, priority 2013, dated 2017).

Legend:
Assay type in all cases: in vivo
bulrush [1] = test: Test Example 2: weedkilling efficacy, growth period weed treatment in the submerged state; B: bulrush
Experimental: (§1) Weedkilling efficacy test on growth period weed treatment in the submerged state
(§2) Alluvial soil was introduced into 1/10,000 Are Wagner pots, and 4 cm depth submerged conditions were created by addition of water and mixing. Seeds of barnyard grass, bulrush and oval-leafed pondweed were mixed and sown into the aforesaid cups, and the plants were grown by placing in a greenhouse at 25 to 30° C. When the barnyard grass, bulrush and oval-leafed pondweed had reached the 1-2 leaf stage, emulsions of compounds of the present invention prepared according to compounding example 2 were diluted with water to give the specified dosages and applied onto the water surface. 3 weeks after the pesticide treatment the effect on each type of plant was investigated on the basis of the assessment criteria of test example 1.
(§3) A: barnyard grass, B: bulrush, C: oval-leafed pondweed, D: crabgrass, E: green foxtail, F: barnyard grass, G: wild oat, H: black-grass, I: Italian ryegrass, J: common wind-grass, K: Indian mallow, L: redroot pigweed, M: fig-leafed goosefoot, N: chickweed, O: catchweed, p: birds-eye speedwell, a: transplanted rice, b: directly sown rice, c: corn, d: soybean, e: wheat, f: beet, g: rapeseed
(§4) Further, pesticide dosage (g/ha) indicates the concentration regulated such that treatment was with only the stated number of grams (g), when calculated per hectare (ha).

barnyard grass [2] = test: Test Example 2: weedkilling efficacy, growth period weed treatment in the submerged state; A: barnyard grass
Experimental: as §1, §2, §3, §4

oval-leafed pondweed [3] = test: Test Example 1: weedkilling efficacy, preemergent weed treatment in the submerged state; C: oval-leafed pondweed
Excerpt: (§5) Weedkilling efficacy test on preemergent weed treatment in the submerged state
(§6) Alluvial soil was introduced into 1/10,000 Are Wagner pots, and 4 cm depth submerged conditions were created by addition of water and mixing. Seeds of barnyard grass, bulrush and oval-leafed pondweed were mixed and sown into the aforesaid cups, then 2.5 leaf stage rice seedlings were transplanted. On the sowing day, emulsions of compounds of the present invention prepared according to compounding example 2 were diluted with water to give the specified dosages and applied onto the water surface. The plants were grown after placing the cups in a greenhouse at 25 to 30° C. 3 weeks after the pesticide treatment the effect on each type of plant was investigated on the basis of the following assessment criteria.
as §3, §4

bulrush [4] = test: Test Example 1: weedkilling efficacy, preemergent weed treatment in the submerged state; B: bulrush
Excerpt: as §5, §6, §3, §4

transplanted rice = test: Test Example 1: preemergent weed treatment in the submerged state, effect on crop; a: transplanted rice
Excerpt: as §5, §6, §3, §4

barnyard grass [5] = test: Test Example 1: weedkilling efficacy, preemergent weed treatment in the submerged state; A: barnyard grass
Excerpt: as §5, §6, §3, §4

oval-leafed pondweed [6] = test: Test Example 2: weedkilling efficacy, growth period weed treatment in the submerged state; C: oval-leafed pondweed
Experimental: as §1, §2, §3, §4

Compound	B (bulrush) weedkilling efficacy grade (bulrush [1]; treatment dosage 320 g/ha)	A (barnyard grass) weedkilling efficacy grade (barnyard grass [2]; treatment dosage 320 g/ha)	C: oval-leafed pondweed, weed kill grade (oval-leafed pondweed [3]; treatment dosage 320 g/ha)	B: bulrush, weed kill grade (bulrush [4]; treatment dosage 320 g/ha)	a: transplanted rice, effect on crop grade (transplanted rice; treatment dosage 320 g/ha)	A: barnyard grass, weed kill grade (barnyard grass [5]; treatment dosage 320 g/ha)	C (oval-leafed pondweed) weedkilling efficacy grade (oval-leafed pondweed [6]; treatment dosage 320 g/ha)	B (bulrush) weedkilling efficacy grade (bulrush [1]; treatment dosage 252 g/ha)	A (barnyard grass) weedkilling efficacy grade (barnyard grass [2]; treatment dosage 252 g/ha)	C: oval-leafed pondweed, weed kill grade (oval-leafed pondweed [3]; treatment dosage 252 g/ha)	B: bulrush, weed kill grade (bulrush [4]; treatment dosage 252 g/ha)	a: transplanted rice, effect on crop grade (transplanted rice; treatment dosage 252 g/ha)	A: barnyard grass, weed kill grade (barnyard grass [5]; treatment dosage 252 g/ha)	C (oval-leafed pondweed) weedkilling efficacy grade (oval-leafed pondweed [6]; treatment dosage 252 g/ha)	also measured
CC(C)(C(=O)Nc1cc(Cl)cc(Cl)n1)N1COCN(c2ccccc2)C1=S [A-2-18]	5 (weed kill ratio 90% or more, (practically complete withering))	5 (weed kill ratio 90% or more, (practically complete withering))	5 (weed kill ratio 90% or more, (practically complete withering))	5 (weed kill ratio 90% or more, (practically complete withering))	0 (weed kill ratio 5% or less (practically no effect))	5 (weed kill ratio 90% or more, (practically complete withering))	5 (weed kill ratio 90% or more, (practically complete withering))	–	–	–	–	–	–	–	–
CC(C)(C(=O)Nc1cccc(C(F)F)n1)N1COCN(c2ccccc2)C1=O [A-2-41]	–	–	–	–	–	–	–	–	–	–	–	–	–	–	B (bulrush) weedkilling efficacy grade (bulrush [1]; treatment dosage 315 g/ha): 5 (weed kill ratio 90% or more, (practically complete withering)); A (barnyard grass) weedkilling efficacy grade (barnyard grass [2]; treatment dosage 315 g/ha): 5 (weed kill ratio 90% or more, (practically complete withering)); C: oval-leafed pondweed, weed kill grade (oval-leafed pondweed [3]; treatment dosage 315 g/ha): 5 (weed kill ratio 90% or more, (practically complete withering)); B: bulrush, weed kill grade (bulrush [4]; treatment dosage 315 g/ha): 5 (weed kill ratio 90% or more, (practically complete withering)); a: transplanted rice, effect on crop grade (transplanted rice; treatment dosage 315 g/ha): 0 (weed kill ratio 5% or less (practically no effect)); A: barnyard grass, weed kill grade (barnyard grass [5]; treatment dosage 315 g/ha): 5 (weed kill ratio 90% or more, (practically complete withering)); C (oval-leafed pondweed) weedkilling efficacy grade (oval-leafed pondweed [6]; treatment dosage 315 g/ha): 5 (weed kill ratio 90% or more, (practically complete withering))
CC(C)(C(=O)Nc1cc(C(F)(F)F)ccn1)N1COCN(c2ccccc2)C1=O [A-2-42]	–	–	–	–	–	–	–	5 (weed kill ratio 90% or more, (practically complete withering))	5 (weed kill ratio 90% or more, (practically complete withering))	5 (weed kill ratio 90% or more, (practically complete withering))	5 (weed kill ratio 90% or more, (practically complete withering))	4 (weed kill ratio 70% or more, less than 90%)	5 (weed kill ratio 90% or more, (practically complete withering))	5 (weed kill ratio 90% or more, (practically complete withering))	–
CC(C)(C(=O)Nc1ccc(C(F)(F)F)cn1)N1COCN(c2ccccc2)C1=O [A-2-43]	4 (weed kill ratio 70% or more, less than 90%)	2 (weed kill ratio 20% or more, less than 40%)	5 (weed kill ratio 90% or more, (practically complete withering))	5 (weed kill ratio 90% or more, (practically complete withering))	0 (weed kill ratio 5% or less (practically no effect))	3 (weed kill ratio 40% or more, less than 70%)	2 (weed kill ratio 20% or more, less than 40%)	–	–	–	–	–	–	–	–
CC(C)(C(=O)Nc1cccc(C(F)(F)F)n1)N1COCN(c2ccccc2)C1=O [A-2-44]	–	–	–	–	–	–	–	5 (weed kill ratio 90% or more, (practically complete withering))	3 (weed kill ratio 40% or more, less than 70%)	4 (weed kill ratio 70% or more, less than 90%)	5 (weed kill ratio 90% or more, (practically complete withering))	0 (weed kill ratio 5% or less (practically no effect))	5 (weed kill ratio 90% or more, (practically complete withering))	1 (weed kill ratio 5% or more, less than 20%)	–
CC(C)(C(=O)Nc1cc(C2CC2)ccn1)N1COCN(c2ccccc2)C1=O [A-2-45]	–	–	–	–	–	–	–	4 (weed kill ratio 70% or more, less than 90%)	4 (weed kill ratio 70% or more, less than 90%)	5 (weed kill ratio 90% or more, (practically complete withering))	5 (weed kill ratio 90% or more, (practically complete withering))	0 (weed kill ratio 5% or less (practically no effect))	5 (weed kill ratio 90% or more, (practically complete withering))	3 (weed kill ratio 40% or more, less than 70%)	–
